Experiments:
LTB4 Receptor = molecular target: T1, LTB4 Receptor (Homo sapiens, UniProt Q15722); assay: LTB4 Receptor Binding Assay; conditions: human neutrophils, 0.6×10^-9 M (3H)LTB4, 0° C., 45 minutes
T1 construct: Neutrophils were purified from venous blood of normal human donors; endogenous in cells; host or cells: human neutrophils from venous blood of normal donors (purity >95%)
Procedure: (§1) Neutrophils were purified from venous blood of normal human donors using standard techniques of dextran sedimentation, centrifugation on Ficoll-paque® (Pharmacia) or Histopaque® sterile solution (Sigma) and hypotonic lysis of erythrocytes (Boyum, A., Isolation of Leukocytes From Human Blood: Further Observations. Scand. J. Lab. Clin. Invest., 21 (Suppl. 97): 31, 1968).
Neutrophils (4- 6×10^6) in 1 ml Hanks' balanced salt solution (HBSS) containing 10 mM HEPES buffer, pH 7.4 and 20 mM nordihydroguaiaretic acid were incubated with 0.6×10^-9 M (^3 H) LTB4 in the presence or absence of test compounds. The incubation was carried out at 0° C. for 45 minutes and terminated by adding 5 ml of ice-cold HBSS followed by rapid filtration of the incubation mixture under vacuum through GF/C glass fiber filters. The filters were further washed with 10 ml HBSS and radioactivity was determined. Specific binding was defined as the difference between total binding and nonspecific binding which was not displaced by 10^-7 M unlabeled LTB4. All data refer to specific binding.

[1] = test system: Human neutrophils (LTB4 chemotaxis); assay: Modified Boyden Chamber Chemotaxis (LTB4-induced neutrophil chemotaxis); format: cell-based; conditions: 3×10^-8 M LTB4, 40-90 minute incubation at 37° C.
Text: as §1, with “1968). The purity of isolated neutrophils was >95%.” for “1968).”
Human neutrophils were isolated from citrated peripheral blood using standard techniques of dextran sedimentation, followed by centrifugation on Histopaque® sterile solution (Sigma) or Ficoll-paque® (Pharmacia) and hypotonic lysis of erythrocytes. A final cell suspension of 3.4×10^6 neutrophils/ml of HEPES-buffered Hanks' balanced salt solution (HBSS, pH 7.3) was added to the upper well (0.8 ml) of a modified Boyden chamber (blind well). The lower well (0.2 ml), separated by a polycarbonate membrane (Nucleopore Corp.), contained HBSS or 3×10^-8 M LTB4 in the presence or absence of test compound. Following a 40-90 minute incubation at 37° C. in 5% CO2 -95% air, cells from the lower well were lysed and nuclei counted in a Model S-Plus-IV Coulter Counter. The number of neutrophils migrating into the lower chamber in the absence of chemoattractant was subtracted from the number of cells migrating in the presence of a chemoattractant. Inhibition of chemotaxis by test compounds was expressed as percent inhibition relative to uninhibited control.

T1 sequence (Q15722 whole entry): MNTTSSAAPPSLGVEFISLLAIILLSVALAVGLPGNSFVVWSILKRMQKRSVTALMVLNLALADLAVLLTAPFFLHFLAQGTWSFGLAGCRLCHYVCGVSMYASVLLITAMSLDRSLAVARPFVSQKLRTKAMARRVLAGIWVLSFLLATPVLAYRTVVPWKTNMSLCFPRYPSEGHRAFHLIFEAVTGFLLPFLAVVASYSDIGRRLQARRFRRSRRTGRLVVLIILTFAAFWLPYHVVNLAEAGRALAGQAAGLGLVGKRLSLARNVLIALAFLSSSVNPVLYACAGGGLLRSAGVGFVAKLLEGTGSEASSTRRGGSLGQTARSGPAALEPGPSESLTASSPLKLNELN

| IC50 (LTB4 Receptor) [nM] | IC50 [1] [nM] | SMILES |
| --- | --- | --- |
| 5.5 | 53 | CCCc1c(OCCCOc2ccc(-c3cscn3)c(OC)c2CC2CC2)ccc2c1OC(C(=O)NS(=O)(=O)c1ccccc1)CC2 (centres unmarked) [Example 9, Benzo sulfonimide of 7-[3-[2-(Cyclopropylmethyl)-3-methoxy-4-(4-thiazolyl)phenoxy]propoxy]-3,4-dihydro-8-propyl-2H-1-benzopyran-2-carboxylic acid] |
| 4.3 | 66 | CCCc1c(OCCCOc2ccc(-c3cscn3)c(OC)c2CC2CC2)ccc2c1OC(CCC(=O)NS(=O)(=O)c1ccccc1)CC2 (centres unmarked) [Example 15, Benzo sulfonimide of 3,4-Dihydro-7-[3-[3-methoxy-2-cycloproplymethyl-4-(4-thiazolyl)phenoxy]propoxy]-8-propyl-2H-1-benzopyran-2-propionic acid] |
| – | 1050 | CCCc1c(OCCCOc2ccc(C(C)=O)c(OC)c2CCC)ccc2c1OC(C(=O)O)CC2 (centres unmarked) [Example 1(b), 7-[3-(4-acetyl-3-methoxy-2-propylphenoxy)propoxy]-3,4-dihydro-8-propyl-2H-1-benzopyran-2-carboxylic acid, reference compound] |

— US5578619A, “Alkoxy-substituted dihydrobenzopyran-2-sulfonimides” (priority 1995, dated 1996)
